Molecules are shown by their SMILES. Read-outs that look alike come from different tables or passages of the source.

The subject of data set [1] is Fasciola hepatica. Briefly: Chemotherapeutic test against adult liver flukes in artificially infected rabbits (reduction of egg count per gram faeces), oral application. The data set is classed as in vivo. The conditions noted are these: Kaninchen. An excerpt:
(§1) Zur Feststellung der Wirkung der erfindungsgemäßen Verbindungen gegen Fasciolide wurden chemotherapeutische Untersuchungen bei ca. 250 g schweren Ratten, bei 2 - 3,5 kg schweren Kaninchen oder an ca. 25 - 30 kg schweren Schaflämmern ausgeführt. Die Versuchstiere wurden mit 15, mit 50 bzw. mit 350 Metazerkarien von Fasciola hepatica artifiziell oral infiziert. Nach Ablauf der Präpatenzperiode (Zeit zwischen Infektion und Geschlechtsreife der Parasiten mit beginnender Ausscheidung von Vermehrungsprodukten) wurde der Parasitenbefall durch Kotuntersuchungen gesichert.
(§2) Unmittelbar nach der Bestimmung der Eizahl pro Gramm Kot wurde die Behandlung der Versuchstiere (im allgemeinen 3 - 4 Tiere pro Wirkstoff, mindestens aber zwei) vorgenommen. Den Tieren wurde oral eine Suspension von unterschiedlicher Wirkstoffmenge in jeweils festgelegten Volumen (Ratte: 0,5 ml/Tier, Kaninchen: 2 ml/Tier, Schaf: 10 ml/Tier) in einer Tylose-Suspension appliziert. Jeweils am 7., 14. und 28. Tag nach der Behandlung wurde wiederum nach der vorstehend angegebenen Methode die Eizahl pro Gramm Kot ermittelt und die prozentuale Abnahme im Vergleich zum Ausgangswert vor der Behandlung und in Vergleich zu unbehandelten Kontrolltieren errechnet.
(§3) Mit einigen erfindungsgemäßen Verbindungen wurden außerdem beim Fasciola-Befall noch eine zusätzliche Prüftechnik angewandt: Nach Abschluß der Präpatenzperiode wurde bei Fasciola-positiven Schafen ein künstlicher Gallengang geschaffen, der am Ausgang der Gallenblase ein Sieb enthielt, so daß die nach der Behandlung abgetöteten Leberegel in der Gallenblase aufgefangen werden konnten. Vier bis sieben Tage nach der Behandlung wurden die so operierten und dann behandelten Schafe getötet, die abgetöteten Leberegel in der Gallenblase so wie noch eventuell in der Leber vorhandene Leberegel gezählt und von der gesamten Wurmbürde der Prozentsatz der abgetöteten Parasiten berechnet. Bei ausgewählten Substanzen wurden über die Kotuntersuchung hinaus auch die behandelten Tiere seziert und die Leber auf eine eventuelle Rest-Wurmbürde von Fasciola hepatica untersucht.

Another data set can be described thus: in vivo. The following applies: sheep, quotient of Dosis tolerata maxima and applied dose, read-out: Sicherheits-faktor. From the text: Eine einmalige Verabreichung der erfindungsgemäßen Wirkstoffe in den angegebenen Dosierungen führt zu einem völligen Aufhören der Eiausscheidung und einer nahezu 100 %igen Befreiung der Tiere von Fasciola hepatica. Alle Dosierungen wurden von den Tieren ohne Nebenerscheinungen vertragen. Dieses wird durch den Sicherheitsfaktor unterstrichen, der wesentlich günstiger ist als bei den zum Vergleich herangezogenen Wirkstoffen
Der Sicherheitsfaktor gibt den Quotienten aus Dosis tolerate maxima und angewandter Dosis an. Die Ergebnisse dieser Versuche sind in der nachstehenden Tabelle zusammengestellt.

In data set [2] the test system is Fasciola hepatica. Kind of data set: Chemotherapeutic test against adult liver flukes in artificially infected sheep (egg count reduction / killed flukes), oral application. The format is in vivo, Schaf.
Description: as §1, with “gesichert. Der qualitativ-quantitative Nachweis von Eiern erfolgte nach der Telemann-Anreicherung (Deutsche Medizinische Wochenschrift "34: 1510, 1908).” for “gesichert.”
as §2, §3

In data set [3] the test system is Fasciola hepatica. Briefly: Chemotherapeutic test against adult liver flukes in artificially infected rats (reduction of egg count per gram faeces), oral application. The format is in vivo. The following applies: Ratte.
Description: as §1, with “gesichert. Der qualitativ-quantitative Nachweis von Eiern erfolgte nach der Telemann-Anreicherung (Deutsche Medizinische Wochenschrift "34: 1510, 1908).” for “gesichert.”
as §2, §3

The mark [4] stands for this setting: 75 mg/kg peroral, adult liver flukes.

Take `CC(=O)Oc1c(I)cc(I)cc1C(=O)Nc1ccc(Cl)cc1` [Clioxanide, 2-Acetoxy-4-chlor-3,5-dijod-benzanilid]: the Wirkung % in the data set on Fasciola hepatica [1] (50 mg/kg peroral, adult liver flukes) is recorded as 0%; in the data set with Fasciola hepatica [1] (setting [4]), 0%; in the data set with Fasciola hepatica [2] (Schaf, 3,75 mg/kg peroral), “ca.50%”; with Fasciola hepatica [2] (Schaf, 7,5 mg/kg peroral), more than 90%; in the data set with Fasciola hepatica [3] (135 mg/kg peroral), 0%; with Fasciola hepatica [3] (200 mg/kg peroral), 0%. Also, the selectivity ratio in “in vivo” (applied dose 3,75 mg/kg (Schaf)) was 30; in the data set “in vivo” (applied dose 7,5 mg/kg (Schaf)), 15.
As to `O=[N+]([O-])c1cc(Cl)cc(-c2cc(Cl)cc([N+](=O)[O-])c2O)c1O` [Niclofolan, 5,5'-Dichlor-2,2`-dihydroxy-3,3'-dinitro-phenyl], the Wirkung % entry with Fasciola hepatica [1] (4 mg/kg peroral, death printed instead of an efficacy value) was “Exitus”; in the data set with Fasciola hepatica [2] (Schaf, 1,5 mg/kg peroral), less than 50%; in the data set on Fasciola hepatica [2] (Schaf, 3,0 mg/kg peroral), more than 90%; in the data set on Fasciola hepatica [3] (4 mg/kg peroral), 80%; in the data set on Fasciola hepatica [3] (8 mg/kg peroral) it was 90%. The selectivity ratio in the data set “in vivo” (applied dose 3,0 mg/kg (Schaf)) came to 4.4.
Consider `CSc1nc2cc(OS(=O)(=O)c3cccc(C(F)(F)F)c3)ccc2[nH]1` [Beispiel 1, 5(6)-(3-Trifluormethyl-phenylsulfonyloxy)-2-methylmercapto-benzimidazol], for which the Wirkung % in the data set on Fasciola hepatica [1] (setting [4]) is 100%; in the data set on Fasciola hepatica [1] (<50 mg/kg peroral, adult liver flukes), 100%; in the data set on Fasciola hepatica [2] (Schaf, 7,5 mg/kg peroral), more than 95%; in the data set with Fasciola hepatica [2] (Schaf, 10,0 mg/kg peroral), 100%; in the data set with Fasciola hepatica [3] (50 mg/kg peroral), 80%; in the data set on Fasciola hepatica [3] (75 mg/kg peroral), 100%.

These data come from patent publication EP0072532A1, “5(6)-Phenyl-sulfonyloxy-benzimidazole derivatives, process for their production, pharmaceutical compositions containing them and their use against liver disorders” (priority 1981, dated 1983).
